Measured values as given in patent US9840498B2, “Substituted quinazolin-4-one derivatives” (NOVARTIS AG, priority 2013, dated 2017).

Target: PI 3-Kinase Gamma (Homo sapiens (Human), UniProt P48736)
Test: Cellular U937 AKT assay for PI 3-kinase gamma
Assay type: cell-based
Conditions: U937 cells, MIP1α-stimulated AKT phosphorylation, read-out: Cell PI3K gamma IC50
Description: The U937 monocyte cell line is maintained in a basal medium of RPMI 1640 supplemented with 10% heat inactivated FCS, 100 U/ml Penicillin, 100 ug/ml streptomycin and 2 mM L-glutamine (Invitrogen). U937 suspension culture is maintained by seeding cells at a density of 0.125×10^6 cells per ml in fresh medium every three or four days. Cells are incubated at 37° C., 5% CO2. […] Before beginning the cell manipulations described below, the MSD (Meso Scale Discovery) assay plate is blocked by addition of 150 ul/well blocking buffer supplied and incubated with shaking for a minimum of one hour at room temperature. All steps of the assay must be performed quickly, with accurately timed incubation periods and observing temperature controls where indicated. […] Falcon tube, counted and centrifuged for eight minutes at 300 g at room temperature. Supernatant is aspirated, the cell pellet resuspended and washed once in HBSS (Hank's Balanced Salt Solution) by centrifugation for eight minutes at 300 g at room temperature. The cell pellet is resuspended in HBSS to a concentration of 4×10^6 per ml, and 100 μL of cell suspension added to each well of a flat-bottomed 96-well tissue culture plate. Assay plates are incubated for 1.5 hours at 37° C., 5% CO2 to allow background AKT phosphorylation to reduce before the compound stimulation step. […] Compound concentrations at this stage are 4-times the final concentration required in the assay plate. Cells are stimulated with compound or HBSS 0.8% DMSO by direct transfer of 50 ul/well from the compound dilution plate. The assay plate containing compound-treated cells is then incubated for 30 minutes at 37° C. A standard plate layout is used for all experiments. Compound-treated cells, in addition to positive control wells (“max MIP1α”), are stimulated with 50 μL per well of 40 ng/ml MIP1α (R&D Systems catalogue number 270-LD, lyophilized stock reconstituted to 50 μg/ml with PBS 0.1% BSA). Negative control wells (“min HBSS”), are stimulated with 50 μl/well of HBSS in the absence of MIP1α. […] Cells are incubated with MIP1α for 3 minutes, at 37° C., 5% CO2. After the three minute stimulation period, the assay plate is kept ice cold at all times. Assay plates are centrifuged for 2 minutes at 300 g, 4° C. and supernatant is removed by gently inverting, and then blotting the plate on tissue. Cells are then washed by gentle addition of 150 μL/well of ice cold HBSS and centrifugation at 300 g, for 5 minutes at 4° C. Supernatant is aspirated and the plate blotted as described above. The plate is placed on ice and cells are immediately treated with 35 μL per well of ice cold lysis buffer, prepared according to the kit instructions (per assay plate, to 5 ml of Tris lysis buffer add 100 μl of 50× protease inhibitor solution and 50 μl of each 100× phosphatase inhibitor solutions I and II). Plates are incubated on ice for 20 minutes before centrifugation at 841 g for 5 minutes, 4° C. Block buffer is aspirated from the MSD plate, and the plate washed four times with 300 μl/well Tris wash buffer. 25 μL of cell lysate is then transferred from the assay plate to the washed MSD plate which is sealed and incubated at room temperature for one hour with shaking. The plate is washed four times with 300 μL per well of Tris wash buffer before addition of 25 μL per well of sulfo-tag anti-total AKT/pAKT detection antibody (60 μl of 50× antibody stock is diluted in 1 ml block buffer mixed with 2 ml wash buffer) and incubated at room temperature for one hour with shaking. The plate is washed four times with 300 μl per well of Tris wash buffer and 150 μl per well of Read buffer is added, taking care to avoid the introduction of bubbles. The plate is immediately read using an MSD SECTOR Imager 6000. Results are exported in Excel and the percentage of phosphorylated AKT is calculated using the equation: % Phosphoprotein=((2*Phospho signal)/(Phospho signal+Total signal))*100. […]

Sequence of PI 3-Kinase Gamma (P48736 whole entry): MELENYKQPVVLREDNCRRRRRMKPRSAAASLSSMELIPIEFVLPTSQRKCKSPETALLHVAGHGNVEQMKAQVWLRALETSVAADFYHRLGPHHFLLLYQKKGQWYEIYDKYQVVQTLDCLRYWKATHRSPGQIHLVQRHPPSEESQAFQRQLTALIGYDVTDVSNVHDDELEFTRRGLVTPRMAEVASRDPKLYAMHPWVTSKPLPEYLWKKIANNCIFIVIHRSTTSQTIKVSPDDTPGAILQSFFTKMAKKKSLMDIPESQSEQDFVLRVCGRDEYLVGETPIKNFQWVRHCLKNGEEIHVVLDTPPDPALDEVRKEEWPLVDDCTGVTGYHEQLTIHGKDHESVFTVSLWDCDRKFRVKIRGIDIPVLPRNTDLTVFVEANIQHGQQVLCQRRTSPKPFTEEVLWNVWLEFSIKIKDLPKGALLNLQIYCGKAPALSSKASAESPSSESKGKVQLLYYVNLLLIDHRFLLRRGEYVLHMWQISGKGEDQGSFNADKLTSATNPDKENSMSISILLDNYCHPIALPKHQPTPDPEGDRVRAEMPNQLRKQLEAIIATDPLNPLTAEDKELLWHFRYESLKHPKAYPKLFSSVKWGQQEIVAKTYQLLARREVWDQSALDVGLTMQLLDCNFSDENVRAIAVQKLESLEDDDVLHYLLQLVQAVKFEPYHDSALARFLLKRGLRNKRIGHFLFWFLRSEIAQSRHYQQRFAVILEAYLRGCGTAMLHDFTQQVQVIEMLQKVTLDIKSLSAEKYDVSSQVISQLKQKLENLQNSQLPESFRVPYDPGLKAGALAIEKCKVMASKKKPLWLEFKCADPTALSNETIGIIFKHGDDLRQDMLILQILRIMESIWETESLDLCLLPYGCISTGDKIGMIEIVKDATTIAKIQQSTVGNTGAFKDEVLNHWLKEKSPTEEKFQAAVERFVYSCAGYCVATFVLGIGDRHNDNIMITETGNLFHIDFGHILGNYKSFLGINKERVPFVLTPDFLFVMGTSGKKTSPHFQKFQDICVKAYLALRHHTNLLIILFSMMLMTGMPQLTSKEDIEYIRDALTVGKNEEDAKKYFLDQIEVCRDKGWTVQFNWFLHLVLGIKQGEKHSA

Row | SMILES | IC50 [nM]
1 | Cc1nc(N)nc(N2C[C@@H](F)C[C@H]2c2nc3cccc(-c4cnn(C)c4)c3c(=O)n2-c2ccccc2)c1C#N [Example 30, 2-Amino-4-((2S,4S)-4-fluoro-2-(5-(1-methyl-1H-pyrazol-4-yl)-4-oxo-3-phenyl-3,4-dihydroquinazolin-2-yl)pyrrolidin-1-yl)-6-methylpyrimidine-5-carbonitrile] | 11
2 | CCOc1ncc(-c2cccc3nc([C@@H]4CCCN4c4nc(N)nc(C)c4C#N)n(-c4ccccc4)c(=O)c23)cn1 [Example 32, (S)-2-Amino-4-(2-(5-(2-ethoxypyrimidin-5-yl)-4-oxo-3-phenyl-3,4-dihydroquinazolin-2-yl)pyrrolidin-1-yl)-6-methylpyrimidine-5-carbonitrile] | 720
3 | COc1ncc(-c2c(F)ccc3nc([C@@H]4C[C@H](O)CN4c4nc(N)nc(C)c4C#N)n(-c4ccccc4)c(=O)c23)cn1 [Example 7, 2-Amino-4-((2S,4S)-2-(6-fluoro-5-(2-methoxypyrimidin-5-yl)-4-oxo-3-phenyl-3,4-dihydroquinazolin-2-yl)-4-hydroxypyrrolidin-1-yl)-6-methylpyrimidine-5-carbonitrile] | 25
4 | Cc1nc(N)nc(N2CCC[C@H]2c2nc3ccc(F)c(-c4cnn(C)c4)c3c(=O)n2-c2ccccc2)c1C#N [Example 6, (S)-2-Amino-4-(2-(6-fluoro-5-(1-methyl-1H-pyrazol-4-yl)-4-oxo-3-phenyl-3,4-dihydroquinazolin-2-yl)pyrrolidin-1-yl)-6-methylpyrimidine-5-carbonitrile] | 41
5 | COc1cncc(-c2cccc3nc([C@@H]4C[C@H](O)CN4c4nc(N)nc(C)c4C#N)n(-c4ccccc4)c(=O)c23)c1 [Example 25, 2-Amino-4-((2S,4S)-4-hydroxy-2-(5-(5-methoxypyridin-3-yl)-4-oxo-3-phenyl-3,4-dihydroquinazolin-2-yl)pyrrolidin-1-yl)-6-methylpyrimidine-5-carbonitrile] | 49
6 | COc1ncc(-c2cccc3nc([C@@H]4C[C@H](O)CN4c4nc(N)nc(C)c4C#N)n(-c4ccccc4)c(=O)c23)cn1 [Example 22, 2-Amino-4-((2S,4S)-4-hydroxy-2-(5-(2-methoxypyrimidin-5-yl)-4-oxo-3-phenyl-3,4-dihydroquinazolin-2-yl)pyrrolidin-1-yl)-6-methylpyrimidine-5-carbonitrile] | 18
7 | COc1ncc(-c2cccc3nc([C@@H]4CCCN4c4ncnc(N)c4C#N)n(-c4ccccc4)c(=O)c23)cn1 [Example 3, (S)-4-Amino-6-(2-(5-(2-methoxypyrimidin-5-yl)-4-oxo-3-phenyl-3,4-dihydroquinazolin-2-yl)pyrrolidin-1-yl)pyrimidine-5-carbonitrile] | 430
8 | Cc1ccccc1-n1c([C@@H]2CCCN2c2ncnc(N)c2C#N)nc2cccc(-c3cnn(C)c3)c2c1=O [Example 14, (S)-4-Amino-6-(2-(5-(1-methyl-1H-pyrazol-4-yl)-4-oxo-3-(otolyl)-3,4-dihydroquinazolin-2-yl)pyrrolidin-1-yl)pyrimidine-5-carbonitrile] | 210
9 | COc1ncc(-c2cccc3nc([C@@H]4C[C@H](OC)CN4c4nc(N)nc(C)c4C#N)n(-c4ccccc4)c(=O)c23)cn1 [Example 12, 2-Amino-4-((2S,4S)-4-methoxy-2-(5-(2-methoxypyrimidin-5-yl)-4-oxo-3-phenyl-3,4-dihydroquinazolin-2-yl)pyrrolidin-1-yl)-6-methylpyrimidine-5-carbonitrile] | 120
10 | CCOc1ncc(-c2c(F)ccc3nc([C@@H]4C[C@H](O)CN4c4nc(N)nc(C)c4C#N)n(-c4ccccc4)c(=O)c23)cn1 [Example 29, 2-Amino-4-((2S,4S)-2-(5-(2-ethoxypyrimidin-5-yl)-6-fluoro-4-oxo-3-phenyl-3,4-dihydroquinazolin-2-yl)-4-hydroxypyrrolidin-1-yl)-6-methylpyrimidine-5-carbonitrile] | 38
11 | COc1cncc(-c2cccc3nc([C@@H]4CCCN4c4nc(N)nc(C)c4C#N)n(-c4ccccc4)c(=O)c23)c1 [Example 18, (S)-2-Amino-4-(2-(5-(5-methoxypyridin-3-yl)-4-oxo-3-phenyl-3,4-dihydroquinazolin-2-yl)pyrrolidin-1-yl)-6-methylpyrimidine-5-carbonitrile] | 16
12 | Cn1cc(-c2c(F)ccc3nc([C@@H]4C[C@H](O)CN4c4ncnc(N)c4C#N)n(-c4ccccc4)c(=O)c23)cn1 [Example 8, 4-Amino-6-((2S,4S)-2-(6-fluoro-5-(1-methyl-1H-pyrazol-4-yl)-4-oxo-3-phenyl-3,4-dihydroquinazolin-2-yl)-4-hydroxypyrrolidin-1-yl) pyrimidine-5-carbonitrile] | 29
13 | Cc1nc(N)nc(N2CCC[C@H]2c2nc3cccc(-c4cncnc4)c3c(=O)n2-c2ccccc2)c1C#N [Example 17, (S)-2-Amino-4-methyl-6-(2-(4-oxo-3-phenyl-5-(pyrimidin-5-yl)-3,4-dihydroquinazolin-2-yl)pyrrolidin-1-yl)pyrimidine-5-carbonitrile] | 290
14 | Cn1cnc(-c2cccc3nc([C@@H]4CCCN4c4ncnc(N)c4C#N)n(-c4ccccc4)c(=O)c23)c1 [Example 15, (S)-4-Amino-6-(2-(5-(1-methyl-1H-imidazol-4-yl)-4-oxo-3-phenyl-3,4-dihydroquinazolin-2-yl)pyrrolidin-1-yl)pyrimidine-5-carbonitrile] | > 10000
15 | CO[C@H]1C[C@@H](c2nc3cccc(-c4cnn(C)c4)c3c(=O)n2-c2ccccc2)N(c2nc(N)nc3[nH]cnc23)C1 [Example 11, 2-((2S,4S)-1-(2-Amino-9H-purin-6-yl)-4-methoxypyrrolidin-2-yl)-5-(1-methyl-1H-pyrazol-4-yl)-3-phenylquinazolin-4(3H)-one] | 340
16 | COc1ccc(-c2cccc3nc([C@@H]4C[C@H](O)CN4c4nc(N)nc(C)c4C#N)n(-c4ccccc4)c(=O)c23)cn1 [Example 27, 2-Amino-4-((2S,4S)-4-hydroxy-2-(5-(6-methoxypyridin-3-yl)-4-oxo-3-phenyl-3,4-dihydroquinazolin-2-yl)pyrrolidin-1-yl)-6-methylpyrimidine-5-carbonitrile] | 63
17 | CO[C@H]1C[C@@H](c2nc3cccc(-c4cnn(C)c4)c3c(=O)n2-c2ccccc2)N(c2nc(N)nc(C)c2C#N)C1 [Example 10, 2-Amino-4-((2S,4S)-4-methoxy-2-(5-(1-methyl-1H-pyrazol-4-yl)-4-oxo-3-phenyl-3,4-dihydroquinazolin-2-yl)pyrrolidin-1-yl)-6-methylpyrimidine-5-carbonitrile] | 38
18 | Cc1nc(N)nc(N2C[C@@H](O)C[C@H]2c2nc3ccc(F)c(-c4cnn(C)c4)c3c(=O)n2-c2ccccc2)c1C#N [Example 1, 2-Amino-4-((2S,4S)-2-(6-fluoro-5-(1-methyl-1H-pyrazol-4-yl)-4-oxo-3-phenyl-3,4-dihydroquinazolin-2-yl)-4-hydroxypyrrolidin-1-yl)-6-methylpyrimidine-5-carbonitrile] | 32
19 | Cc1nc(N)nc(N2C[C@@H](O)C[C@H]2c2nc3cccc(-c4cccnc4)c3c(=O)n2-c2ccccc2)c1C#N [Example 24, 2-Amino-4-((2S,4S)-4-hydroxy-2-(4-oxo-3-phenyl-5-(pyridin-3-yl)-3,4-dihydroquinazolin-2-yl)pyrrolidin-1-yl)-6-methylpyrimidine-5-carbonitrile] | 9
